Calls of active or inactive are those of the source. The rule behind the calls is not given here.
What was measured:
HCT-116 = assay: Antiproliferative activity against human HCT-116 cells assessed as inhibition of cell growth incubated for 48 hrs by MTT assay; assay type: functional, cell-based; conditions: HCT-116, 48 h
MCF7 [1] = assay: Antiproliferative activity against human MCF7 cells assessed as inhibition of cell growth incubated for 48 hrs by MTT assay; assay type: functional, cell-based; conditions: MCF7, 48 h
NCI/ADR-RES = assay: Antiproliferative activity against human MCF7ADR cells assessed as inhibition of cell growth measured after 48 hrs by MTT assay; assay type: functional, cell-based
[2] = Cytotoxicity against human MCF-10A cells assessed as cell growth inhibition measured after 48 hrs by MTT assay; assay type: toxicity, cell-based
[3] = target: T1, DNA topoisomerase 1 (Homo sapiens) (UniProt P11387); assay: Inhibition of human DNA topoisomerase I mediated supercoiled DNA relaxation activity incubated for 30 mins by Ged Red staining based agarose gel electrophoresis analysis; conditions: dose 20-100 µM
T1 sequence (whole entry): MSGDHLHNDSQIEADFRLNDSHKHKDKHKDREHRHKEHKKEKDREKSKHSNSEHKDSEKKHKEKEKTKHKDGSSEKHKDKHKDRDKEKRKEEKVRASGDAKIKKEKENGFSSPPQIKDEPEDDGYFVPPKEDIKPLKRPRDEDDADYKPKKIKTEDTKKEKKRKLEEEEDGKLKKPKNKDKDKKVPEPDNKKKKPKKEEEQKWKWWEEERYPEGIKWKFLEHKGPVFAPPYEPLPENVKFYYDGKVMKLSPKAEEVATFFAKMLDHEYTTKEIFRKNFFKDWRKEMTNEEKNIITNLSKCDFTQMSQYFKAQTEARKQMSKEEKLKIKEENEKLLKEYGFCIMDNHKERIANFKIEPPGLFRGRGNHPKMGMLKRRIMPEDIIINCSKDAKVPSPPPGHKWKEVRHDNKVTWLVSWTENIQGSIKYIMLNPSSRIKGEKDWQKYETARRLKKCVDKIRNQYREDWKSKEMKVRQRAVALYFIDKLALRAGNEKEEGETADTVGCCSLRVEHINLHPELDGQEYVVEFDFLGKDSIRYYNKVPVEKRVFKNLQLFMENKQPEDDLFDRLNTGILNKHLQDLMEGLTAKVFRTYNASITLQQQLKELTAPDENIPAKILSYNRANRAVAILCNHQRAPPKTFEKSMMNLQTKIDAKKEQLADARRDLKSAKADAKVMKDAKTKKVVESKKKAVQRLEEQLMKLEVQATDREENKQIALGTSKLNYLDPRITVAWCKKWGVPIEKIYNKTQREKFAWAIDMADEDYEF

MCF7 [4] = assay: Induction of apoptosis in human MCF7 cells assessed as upregulation of cleaved-PARP expression incubated for 24 hrs by Western blot analysis; assay type: functional, cell-based; conditions: dose 1-4 µM
MCF7 [5] = assay: Induction of apoptosis in human MCF7 cells assessed as downregulation of Bcl-2 expression incubated for 24 hrs by Western blot analysis; assay type: functional, cell-based; conditions: dose 1-4 µM
MCF7 [6] = assay: Induction of cell cycle arrest in human MCF7 cells assessed as G2 phase cells at 1.5 uM incubated for 24 hrs by PI/RNaseA staining based flow cytometry analysis (reference value: 7.67 %); assay type: functional
MCF7 [7] = assay: Antitumor activity against human MCF7 cells xenografted in BALB/c nude mouse assessed as reduction in tumor volume at 5 mg/kg, ip administered once every two days for 3 weeks; assay type: functional, organism-based
[8] = Toxicity in BALB/c mouse xenografted with human MCF7 cells assessed as spleen damage at 5 mg/kg, ip administered once every two days for 3 weeks by H and E staining based microscopic analysis; assay type: organism-based; conditions: in vivo, 504 h
[9] = Toxicity in BALB/c mouse xenografted with human MCF7 cells assessed as liver damage at 10 mg/kg, ip administered once every two days for 3 weeks by H and E staining based microscopic analysis; assay type: organism-based; conditions: in vivo, 504 h
MCF7 [10] = assay: Induction of apoptosis in human MCF7 cells assessed as nucleus fragmentation upto 3 uM incubated for 48 hrs by Hoechst-33342 staining based fluorescent microscopic analysis; assay type: functional, cell-based
MCF7 [11] = assay: Induction of apoptosis in human MCF7 cells assessed as viable cells at 0.75 uM incubated for 48 hrs by Annexin-V/PI staining based flow cytometry analysis (reference value: 99.7%); assay type: functional; conditions: read-out: Activity
MCF7 [12] = assay: Induction of apoptosis in human MCF7 cells assessed as late apoptotic cells at 0.75 uM incubated for 48 hrs by Annexin-V/PI staining based flow cytometry analysis (reference value: 0.0%); assay type: functional
MCF7 [13] = assay: Induction of apoptosis in human MCF7 cells assessed as necrotic cells at 0.75 uM incubated for 48 hrs by Annexin-V/PI staining based flow cytometry analysis (reference value: 0.0%); assay type: functional
MCF7 [14] = assay: Induction of apoptosis in human MCF7 cells assessed as necrotic cells at 3 uM incubated for 48 hrs by Annexin-V/PI staining based flow cytometry analysis (reference value: 0.0%); assay type: functional

Work on COc1cc(-c2cc(C(=O)OCCCCCOc3no[n+]([O-])c3S(=O)(=O)c3ccccc3)c3ccccc3n2)cc(OC)c1OC yielded an IC50 (HCT-116) of 2480 nM, an IC50 (MCF7 [1]) of 1450 nM and an IC50 (NCI/ADR-RES) of 620 nM. For the same compound, the IC50 at 48 h [2] was 26900 nM, the inhibition [3] was “Dose-Dependent Effect” and the Activity (MCF7 [4]) was “Dose-Dependent Effect”. The Activity (MCF7 [5]) was “Dose-Dependent Effect”, the Activity (MCF7 [6]) was 19.12% and the Activity (MCF7 [7]) was “Active”. The Activity [8] was “Non-Toxic”, the Activity [9] was “Non-Toxic” and the Activity (MCF7 [10]) was “Active”. It also gave a viability at 0.75 µM (MCF7 [11]) of 67.1%, an Activity (MCF7 [12]) of 18% and an Activity (MCF7 [13]) of 3%. It also gave an Activity (MCF7 [14]) of 1.2%.

Source: ChEMBL document CHEMBL5329205, “Development of novel quinoline-NO donor hybrids inducing human breast cancer cells apoptosis via inhibition of topoisomerase I” (Bioorg Med Chem, 2023)
